In publication PMC4871132 (Journal of chemical information and modeling, 2016):
Square brackets hold non-standard residues; d marks the D form. Peptide text beside a SMILES is read from it. * marks the point of attachment. ξ: configuration not given here. Cbz = O=C(OCc1ccccc1)*; ξM = CSCCC(N)C(=O)O

Experiments:
[1] = target: PfDHODH (Plasmodium falciparum, UniProt Q08210); assay: colorimetric DCIP PfDHODH enzyme inhibition assay; assay type: biochemical; conditions: for % PfDHODH Inhibition at 10 μM: 10 μM compound; for IC50: read-out: PfDHODH IC50
[2] = target: hDHODH (Homo sapiens, UniProt Q02127); assay: colorimetric DCIP human DHODH enzyme inhibition assay; assay type: biochemical
[3] = test system: P. falciparum NF54 strain (PfNF54); assay: in vitro antiplasmodial assay, [3H] hypoxanthine incorporation assay; assay type: cell-based; conditions: Plasmodium falciparum, NF54, read-out: PfNF54 IC50
[4] = test system: P. falciparum NF54 strain (PfNF54); assay: in vitro antiplasmodial assay, parasite lactate dehydrogenase assay; assay type: cell-based; conditions: Plasmodium falciparum, NF54, read-out: PfNF54 IC50

PfDHODH, sequence (Q08210 24-569): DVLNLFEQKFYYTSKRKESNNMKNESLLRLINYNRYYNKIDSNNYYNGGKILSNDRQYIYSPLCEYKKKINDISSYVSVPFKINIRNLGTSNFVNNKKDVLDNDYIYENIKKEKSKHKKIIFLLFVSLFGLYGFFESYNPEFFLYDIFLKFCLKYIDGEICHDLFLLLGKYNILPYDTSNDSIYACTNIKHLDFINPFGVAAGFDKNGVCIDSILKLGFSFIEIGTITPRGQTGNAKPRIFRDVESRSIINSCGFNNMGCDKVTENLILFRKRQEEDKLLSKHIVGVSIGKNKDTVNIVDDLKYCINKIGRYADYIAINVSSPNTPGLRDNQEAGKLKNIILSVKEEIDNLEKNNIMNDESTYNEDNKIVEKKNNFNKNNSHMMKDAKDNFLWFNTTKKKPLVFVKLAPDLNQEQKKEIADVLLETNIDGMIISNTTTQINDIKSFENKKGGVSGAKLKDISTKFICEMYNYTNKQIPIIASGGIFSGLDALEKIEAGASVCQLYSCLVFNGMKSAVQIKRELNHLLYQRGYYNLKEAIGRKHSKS
hDHODH, sequence (Q02127 whole entry): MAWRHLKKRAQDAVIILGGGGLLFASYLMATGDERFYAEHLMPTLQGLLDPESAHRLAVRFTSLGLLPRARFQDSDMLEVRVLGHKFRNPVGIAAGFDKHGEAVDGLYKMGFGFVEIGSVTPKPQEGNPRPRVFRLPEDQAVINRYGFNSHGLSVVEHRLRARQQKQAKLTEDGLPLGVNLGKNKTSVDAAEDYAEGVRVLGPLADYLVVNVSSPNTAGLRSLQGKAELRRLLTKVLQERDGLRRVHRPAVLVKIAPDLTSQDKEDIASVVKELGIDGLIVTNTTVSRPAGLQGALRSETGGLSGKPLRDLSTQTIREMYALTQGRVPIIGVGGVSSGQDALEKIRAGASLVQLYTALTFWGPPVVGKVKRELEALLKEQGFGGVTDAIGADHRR

## CCOC(=O)C(Cc1c[nH]c2ccc([N+](=O)[O-])cc12)C(=O)OCC [NSC85231]
[1]
  % PfDHODH Inhibition at 10 μM: 28%

## CSCCC(NC(=O)OCc1ccccc1)C(=O)NCC(=O)O (stereo not shown) [NSC89636] (Cbz-[ξM]-Gly-OH)
[1]
  % PfDHODH Inhibition at 10 μM: 26%

## CCOC(=O)c1cnc(SC)nc1Nc1ccc(Cl)cc1 [NSC165287]
[1]
  % PfDHODH Inhibition at 10 μM: 11%

## CCOC(=O)C(=CNc1cc(Cl)ccc1Cl)C(=O)OCC [NSC137121]
[1]
  % PfDHODH Inhibition at 10 μM: 0%

## C=CCN(CC(O)CO)c1ccccc1 (stereo not shown) [NSC58504]
[1]
  % PfDHODH Inhibition at 10 μM: 26%

## CSCCC(NC(=O)COc1ccc(Cl)cc1Cl)C(=O)O (stereo not shown) [NSC87887]
[1]
  % PfDHODH Inhibition at 10 μM: 28%

## CCOC(=O)CSC(=S)Nc1ccc(Cl)cc1 [NSC85749]
[1]
  PfDHODH inhibition, result in words: moderately active at concentrations above 30 μM
  % PfDHODH Inhibition at 10 μM: 46%
  IC50: > 100000 nM

## CCOC(=O)/C(C#N)=C/NCCc1c[nH]c2ccccc12 [NSC343533]
[1]
  % PfDHODH Inhibition at 10 μM: 50%
  IC50: 20000 nM

## CCOC(=O)C(=CNc1cccc(N(C)C)c1)C(=O)OCC [NSC336047]
[2]; from PfDHODH and hDHODH IC50
  species-selectivity for PfDHODH over hDHODH: highly species selective
[2]; read-out: hDHODH IC50
  IC50: > 100000 nM
[1]
  % PfDHODH Inhibition at 10 μM: 93%
  IC50: 380 nM

## CCN(CC)CCCC(C)Nc1ccnc2cc(Cl)ccc12 (stereo not shown) [Chloroquine]
[3]
  IC50: 12 nM
[4]
  IC50: 13 nM

## CCOC(=O)C(=CNc1cccc2c(O)cccc12)C(=O)OCC [NSC340225]
[1]
  % PfDHODH Inhibition at 10 μM: 3%

## C[C@H]1[C@H](OC(=O)CCC(=O)O)O[C@@H]2O[C@@]3(C)CC[C@H]4[C@H](C)CC[C@@H]1[C@@]24OO3 [Artesunate]
[3]
  IC50: 9 nM
[4]
  IC50: 10 nM

## CCOC(=O)C(=CNc1ccc2c(c1)OCO2)C(=O)OCC [NSC332161]
[1]; 10 µM
  % PfDHODH Inhibition at 10 μM: 63%
[1]
  IC50: 5100 nM

## COC(=O)C(CC(=O)c1ccc2ccccc2c1)OC (stereo not shown) [NSC72405]
[1]
  % PfDHODH Inhibition at 10 μM: 30%
  IC50: > 100000 nM

## O=NN(CCCl)C(=O)Nc1ccc2[nH]c3ccccc3c2c1 [NSC 116824]
[1]
  % PfDHODH Inhibition at 10 μM: 3%
